Laboratory results: ChEMBL document CHEMBL1255442, “Assay of colistin and colistin methanesulfonate in plasma and urine by liquid chromatography-tandem mass spectrometry” (Antimicrob Agents Chemother, 2010)

Legend:
Type in all cases: ADME, organism-based
[1] = system: Plasma; assay: Stability of the compound in healthy human spiked plasma assessed as Colistin methanesulfonate A at 80 mg, iv administered for 60 mins measured after 1 hr in room temperature by LC-MS/MS assay; conditions: in vivo
[2] = system: Plasma; assay: Stability of the compound in healthy human spiked plasma assessed as Colistin methanesulfonate A at 80 mg, iv administered for 60 mins measured under acidic pretreatment by LC-MS/MS assay; conditions: in vivo, 1 h
[3] = system: Plasma; assay: Stability of the compound in healthy human spiked plasma assessed as Colistin methanesulfonate A degradation at 80 mg, iv administered for 60 mins measured after 1 hr in room temperature by LC-MS/MS assay; conditions: in vivo
[4] = Stability of the compound in healthy human spiked urine assessed as Colistin methanesulfonate A degradation at 80 mg, iv administered for 60 mins measured at room temperature by LC-MS/MS assay; conditions: in vivo, 1 h
[5] = system: Plasma; assay: Stability of the compound in healthy human spiked plasma assessed as Colistin methanesulfonate A degradation at 80 mg, iv administered for 60 mins measured post 2 months of incubation at -20 degC by LC-MS/MS assay; conditions: in vivo, 1 h
[6] = system: Plasma; assay: Stability of the compound in healthy human spiked plasma assessed as Colistin methanesulfonate B at 80 mg, iv administered for 60 mins measured after 4 hrs in room temperature by LC-MS/MS assay; conditions: in vivo
[7] = system: Plasma; assay: Stability of the compound in healthy human spiked plasma assessed as Colistin methanesulfonate A at 80 mg, iv administered for 60 mins measured after 2 freeze-thaw cycles by LC-MS/MS assay; conditions: in vivo, 1 h
[8] = Stability of the compound in healthy human spiked urine assessed as Colistin methanesulfonate B at 80 mg, iv administered for 60 mins measured after 4 hrs in room temperature by LC-MS/MS assay; conditions: in vivo
[9] = Stability of the compound in healthy human spiked urine assessed as Colistin methanesulfonate A at 80 mg, iv administered for 60 mins measured after 2 freeze-thaw cycles by LC-MS/MS assay; conditions: in vivo, 1 h
[10] = Stability of the compound in healthy human spiked urine assessed as Colistin methanesulfonate B degradation at 80 mg, iv administered for 60 mins measured after 4 hrs in room temperature by LC-MS/MS assay; conditions: in vivo
[11] = system: Plasma; assay: Stability of the compound in healthy human spiked plasma assessed as Colistin methanesulfonate B degradation at 80 mg, iv administered for 60 mins measured under nonacidic pretreatment by LC-MS/MS assay; conditions: in vivo, 1 h
[12] = system: Plasma; assay: Stability of the compound in healthy human spiked plasma assessed as initial Colistin methanesulfonate A at 80 mg, iv administered for 60 mins measured under acidic pretreatment by LC-MS/MS assay; conditions: in vivo, 1 h
[13] = system: Plasma; assay: Stability of the compound in healthy human spiked plasma assessed as Colistin methanesulfonate A at 80 mg, iv administered for 60 mins measured after 4 hrs in room temperature by LC-MS/MS assay; conditions: in vivo
[14] = system: Plasma; assay: Stability of the compound in healthy human spiked plasma assessed as Colistin methanesulfonate B at 80 mg, iv administered for 60 mins measured after 1 hr in room temperature by LC-MS/MS assay; conditions: in vivo
[15] = system: Plasma; assay: Stability of the compound in healthy human spiked plasma assessed as Colistin methanesulfonate A degradation at 80 mg, iv administered for 60 mins measured under nonacidic pretreatment by LC-MS/MS assay; conditions: in vivo, 1 h
[16] = system: Plasma; assay: Stability of the compound in healthy human spiked plasma assessed as Colistin methanesulfonate B degradation at 80 mg, iv administered for 60 mins measured after 5 hrs at 4 degC by LC-MS/MS assay; conditions: in vivo
[17] = Stability of the compound in healthy human spiked urine assessed as Colistin methanesulfonate A degradation at 80 mg, iv administered for 60 mins measured after 2 freeze-thaw cycles by LC-MS/MS assay; conditions: in vivo, 1 h
[18] = system: Plasma; assay: Stability of the compound in healthy human spiked plasma assessed as initial Colistin methanesulfonate B at 80 mg, iv administered for 60 mins measured under acidic pretreatment by LC-MS/MS assay; conditions: in vivo, 1 h
[19] = Stability of the compound in healthy human spiked urine assessed as Colistin methanesulfonate B at 80 mg, iv administered for 60 mins measured at room temperature by LC-MS/MS assay; conditions: in vivo, 1 h
[20] = system: Plasma; assay: Stability of the compound in healthy human spiked plasma assessed as Colistin methanesulfonate A at 80 mg, iv administered for 60 mins measured under nonacidic pretreatment by LC-MS/MS assay; conditions: in vivo, 1 h
[21] = system: Plasma; assay: Stability of the compound in healthy human spiked plasma assessed as Colistin methanesulfonate A degradation at 80 mg, iv administered for 60 mins measured under acidic pretreatment by LC-MS/MS assay; conditions: in vivo, 1 h
[22] = system: Plasma; assay: Stability of the compound in healthy human spiked plasma assessed as Colistin methanesulfonate B degradation at 80 mg, iv administered for 60 mins measured after 1 hr in room temperature by LC-MS/MS assay; conditions: in vivo
[23] = Stability of the compound in healthy human spiked urine assessed as Colistin methanesulfonate A degradation at 80 mg, iv administered for 60 mins measured after 4 hrs in room temperature by LC-MS/MS assay; conditions: in vivo
[24] = Stability of the compound in healthy human spiked urine assessed as Colistin methanesulfonate B degradation at 80 mg, iv administered for 60 mins measured at room temperature by LC-MS/MS assay; conditions: in vivo, 1 h
[25] = Stability of the compound in healthy human spiked urine assessed as Colistin methanesulfonate A degradation at 80 mg, iv administered for 60 mins measured after 1 hr in room temperature by LC-MS/MS assay; conditions: in vivo
[26] = system: Plasma; assay: Stability of the compound in healthy human spiked plasma assessed as Colistin methanesulfonate B at 80 mg, iv administered for 60 mins measured under nonacidic pretreatment by LC-MS/MS assay; conditions: in vivo, 1 h
[27] = system: Plasma; assay: Stability of the compound in healthy human spiked plasma assessed as Colistin methanesulfonate B at 80 mg, iv administered for 60 mins measured post 2 months of incubation at -20 degC by LC-MS/MS assay; conditions: in vivo, 1 h
[28] = system: Plasma; assay: Stability of the compound in healthy human spiked plasma assessed as Colistin methanesulfonate A degradation at 80 mg, iv administered for 60 mins measured after 2 freeze-thaw cycles by LC-MS/MS assay; conditions: in vivo, 1 h
[29] = system: Plasma; assay: Stability of the compound in healthy human spiked plasma assessed as initial Colistin methanesulfonate A at 80 mg, iv administered for 60 mins measured after 2 freeze-thaw cycles by LC-MS/MS assay; conditions: in vivo, 1 h
[30] = system: Plasma; assay: Stability of the compound in healthy human spiked plasma assessed as Colistin methanesulfonate B degradation at 80 mg, iv administered for 60 mins measured post 2 months of incubation at -20 degC by LC-MS/MS assay; conditions: in vivo, 1 h
[31] = system: Plasma; assay: Stability of the compound in healthy human spiked plasma assessed as Colistin methanesulfonate B degradation at 80 mg, iv administered for 60 mins measured under acidic pretreatment by LC-MS/MS assay; conditions: in vivo, 1 h
[32] = system: Plasma; assay: Stability of the compound in healthy human spiked plasma assessed as Colistin methanesulfonate A degradation at 80 mg, iv administered for 60 mins measured after 5 hrs at 4 degC by LC-MS/MS assay; conditions: in vivo
[33] = system: Plasma; assay: Stability of the compound in healthy human spiked plasma assessed as Colistin methanesulfonate B at 80 mg, iv administered for 60 mins measured after 5 hrs at 4 degC by LC-MS/MS assay; conditions: in vivo
[34] = Stability of the compound in healthy human spiked urine assessed as Colistin methanesulfonate B degradation at 80 mg, iv administered for 60 mins measured after 2 freeze-thaw cycles by LC-MS/MS assay; conditions: in vivo, 1 h
[35] = Stability of the compound in healthy human spiked urine assessed as Colistin methanesulfonate B at 80 mg, iv administered for 60 mins measured after 2 freeze-thaw cycles by LC-MS/MS assay; conditions: in vivo, 1 h
[36] = system: Plasma; assay: Stability of the compound in healthy human spiked plasma assessed as Colistin methanesulfonate A at 80 mg, iv administered for 60 mins measured post 2 months of incubation at -20 degC by LC-MS/MS assay; conditions: in vivo, 1 h
[37] = system: Plasma; assay: Stability of the compound in healthy human spiked plasma assessed as Colistin methanesulfonate A at 80 mg, iv administered for 60 mins measured after 5 hrs at 4 degC by LC-MS/MS assay; conditions: in vivo
[38] = Stability of the compound in healthy human spiked urine assessed as Colistin methanesulfonate B at 80 mg, iv administered for 60 mins measured after 1 hr in room temperature by LC-MS/MS assay; conditions: in vivo
[39] = system: Plasma; assay: Stability of the compound in healthy human spiked plasma assessed as Colistin methanesulfonate B at 80 mg, iv administered for 60 mins measured after 2 freeze-thaw cycles by LC-MS/MS assay; conditions: in vivo, 1 h
[40] = system: Plasma; assay: Stability of the compound in healthy human spiked plasma assessed as initial Colistin methanesulfonate B at 80 mg, iv administered for 60 mins measured after 2 freeze-thaw cycles by LC-MS/MS assay; conditions: in vivo, 1 h
[41] = system: Plasma; assay: Stability of the compound in healthy human spiked plasma assessed as Colistin methanesulfonate B degradation at 80 mg, iv administered for 60 mins measured after 4 hrs in room temperature by LC-MS/MS assay; conditions: in vivo
[42] = system: Plasma; assay: Stability of the compound in healthy human spiked plasma assessed as initial Colistin methanesulfonate B at 80 mg, iv administered for 60 mins measured post 2 months of incubation at -20 degC by LC-MS/MS assay; conditions: in vivo, 1 h, pooled result: one value given for 9 cell lines, strains, targets or settings
[43] = system: Plasma; assay: Stability of the compound in healthy human spiked plasma assessed as Colistin methanesulfonate B at 80 mg, iv administered for 60 mins measured under acidic pretreatment by LC-MS/MS assay; conditions: in vivo, 1 h
[44] = system: Plasma; assay: Stability of the compound in healthy human spiked plasma assessed as initial Colistin methanesulfonate A at 80 mg, iv administered for 60 mins measured post 2 months of incubation at -20 degC by LC-MS/MS assay; conditions: in vivo, 1 h, pooled result: one value given for 9 cell lines, strains, targets or settings
[45] = Stability of the compound in healthy human spiked urine assessed as Colistin methanesulfonate A at 80 mg, iv administered for 60 mins measured after 1 hr in room temperature by LC-MS/MS assay; conditions: in vivo
[46] = Stability of the compound in healthy human spiked urine assessed as Colistin methanesulfonate A at 80 mg, iv administered for 60 mins measured at room temperature by LC-MS/MS assay; conditions: in vivo, 1 h
[47] = system: Plasma; assay: Stability of the compound in healthy human spiked plasma assessed as Colistin methanesulfonate B degradation at 80 mg, iv administered for 60 mins measured after 2 freeze-thaw cycles by LC-MS/MS assay; conditions: in vivo, 1 h
[48] = system: Plasma; assay: Stability of the compound in healthy human spiked plasma assessed as Colistin methanesulfonate A degradation at 80 mg, iv administered for 60 mins measured after 4 hrs in room temperature by LC-MS/MS assay; conditions: in vivo
[49] = Stability of the compound in healthy human spiked urine assessed as Colistin methanesulfonate A at 80 mg, iv administered for 60 mins measured after 4 hrs in room temperature by LC-MS/MS assay; conditions: in vivo
[50] = Stability of the compound in healthy human spiked urine assessed as Colistin methanesulfonate B degradation at 80 mg, iv administered for 60 mins measured after 1 hr in room temperature by LC-MS/MS assay; conditions: in vivo

## COLISTIMETHATE SODIUM
[1]
  Stability: 0.123 µg/mL
[2]
  Stability: 1.626 µg/mL
[3]
  Stability: 3.3%
[4]
  Stability: 16.4%
[5]
  Stability: Stable
[6]
  Stability: 0.175 µg/mL
[7]
  Stability: Unstable
[8]
  Stability: 0.268 µg/mL
[9]
  Stability: 0.746 µg/mL
[10]
  Stability: 21.4%
[11]
  Stability: Stable
[12]
  Stability: 7.492 µg/mL
[13]
  Stability: 0.519 µg/mL
[14]
  Stability: 0.029 µg/mL
[15]
  Stability: Stable
[16]
  Stability: Stable
[17]
  Stability: 19.9%
[18]
  Stability: 2.508 µg/mL
[19]
  Stability: 0.143 µg/mL
[20]
  Stability: Unstable
[21]
  Stability: 32.5%
[22]
  Stability: 2.3%
[23]
  Stability: 29.2%
[24]
  Stability: 11.6%
[25]
  Stability: 22.3%
[26]
  Stability: Unstable
[27]
  Stability: Unstable
[28]
  Stability: Stable
[29]
  Stability: 0.937 µg/mL
[30]
  Stability: Stable
[31]
  Stability: 29.1%
[32]
  Stability: Stable
[33]
  Stability: Unstable
[34]
  Stability: 14.4%
[35]
  Stability: 0.18 µg/mL
[36]
  Stability: Unstable
[37]
  Stability: Unstable
[38]
  Stability: 0.211 µg/mL
[39]
  Stability: Unstable
[40]
  Stability: 0.313 µg/mL
[41]
  Stability: 14%
[42]
  Stability: 1.254 µg/mL
[43]
  Stability: 0.485 µg/mL
[44]
  Stability: 3.746 µg/mL
[45]
  Stability: 0.835 µg/mL
[46]
  Stability: 0.614 µg/mL
[47]
  Stability: Stable
[48]
  Stability: 13.9%
[49]
  Stability: 1.056 µg/mL
[50]
  Stability: 16.8%
